Consider 5 compounds from ChEMBL document CHEMBL5370589, “Heterologous Production and Biosynthesis of Threonine-16:0dioic acids with a Hydroxamate Moiety” (J Nat Prod, 2023).

Activity calls are given as the source filed them. No cut-off for these calls is given here.

One data set relates to Enterococcus mundtii. Briefly: Antibiotic activity against Enterococcus mundtii DSM-4840 assessed as reduction in bacterial cell growth at 0.03 to 64 microg/ml. The class given is functional, organism-based. The note with it: dose 0.03-64 µg/ml.
For another data set, the system named is Staphylococcus carnosus. Briefly: Antibiotic activity against Staphylococcus carnosus DSM-20501 assessed as reduction in bacterial cell growth at 0.03 to 64 microg/ml. The data set is classed as functional, organism-based. The following applies: dose 0.03-64 µg/ml.
A further data set has as its system Erwinia persicina. The experiment in a line: Antibiotic activity against Erwinia persicina DSM-19328 assessed as reduction in bacterial cell growth at 0.03 to 64 microg/ml. The class given is functional, organism-based. The note with it: dose 0.03-64 µg/ml.
Data set [1] is described as follows: Metal chelating activity assessed as compound-[…] complex formation by chrome-azurol S assay.
Data set [2] in a line: Potency index, ratio of deferoxamine EC50 to compound EC50 for metal chelating activity assessed as compound-[…] complex formation by chrome-azurol S assay.
In another data set the test system is Micrococcus luteus. The experiment in a line: Antibiotic activity against Micrococcus luteus DSM-20030 assessed as reduction in bacterial cell growth at 0.03 to 64 microg/ml. The note with it: dose 0.03-64 µg/ml. The class given is functional, organism-based.
The subject of another data set is Staphylococcus aureus. The experiment in a line: Antibiotic activity against Staphylococcus aureus Newman assessed as reduction in bacterial cell growth at 0.03 to 64 microg/ml. The data set is classed as functional, organism-based. The note with it: dose 0.03-64 µg/ml.
The next data set deals with Bacillus subtilis. The experiment in a line: Antibiotic activity against Bacillus subtilis DSM-10 assessed as reduction in bacterial cell growth at 0.03 to 64 microg/ml. The data set is classed as functional, organism-based. The following applies: dose 0.03-64 µg/ml.
A further data set deals with Kocuria rhizophila. The experiment in a line: Antibiotic activity against Kocuria rhizophila DSM-348 assessed as reduction in bacterial cell growth at 0.03 to 64 microg/ml. The data set is classed as functional, organism-based. The note with it: dose 0.03-64 µg/ml.
The test system of another data set is Escherichia coli. The experiment in a line: Antibiotic activity against wild-type Escherichia coli BW25113 assessed as reduction in bacterial cell growth at 0.03 to 64 microg/ml. The data set is classed as functional, organism-based. The note with it: dose 0.03-64 µg/ml.
The next data set concerns Pseudomonas putida. The experiment in a line: Antibiotic activity against Pseudomonas putida assessed as reduction in bacterial cell growth at 0.03 to 64 microg/ml. The class given is functional, organism-based. The note with it: dose 0.03-64 µg/ml.
In the next data set the test system is HepG2. The experiment in a line: Cytotoxicity against human HepG2 cells assessed as reduction in cell viability. The class given is toxicity, cell-based.
The nature of data set [3]: Metal chelating activity assessed as compound-[…] complex formation at 10 to 100 uM by chrome-azurol S assay. The note with it: dose 10-100 µM.

Usually EC50 stands for the midpoint of the concentration-response curve. Consider `C[C@@H](O)[C@H](C(=O)O)N(O)C(=O)CCCCCCCCCCCCCCC(=O)O`, for which the outcome with Enterococcus mundtii, in the data set with Staphylococcus carnosus, in the data set with Erwinia persicina, with Micrococcus luteus, with Staphylococcus aureus and with Bacillus subtilis was inactive. Also, the outcome in the data set with Kocuria rhizophila, in the data set on Escherichia coli and in the data set with Pseudomonas putida was inactive. Moreover, in data set [1], the EC50 was 58 µM. Further, the Ratio EC50 in data set [2] worked out at 5. For the same compound, in the data set with HepG2, the Activity result is “Non-Toxic”.
As to `CC(=O)N(O)CCCCCNC(=O)CCC(=O)N(O)CCCCCNC(=O)CCC(=O)N(O)CCCCCN` [DEFEROXAMINE], in data set [1], the EC50 was 11 µM.
`CC(CCCCCCCCCCCCC(=O)N(O)[C@@H](C(=O)O)[C@@H](C)O)C(=O)O` (stereo partly specified): the concentration for a half-maximal effect (EC50) in data set [1] is 75 µM.
On the same count and under the same terms, to `O=C(O)CN(CCN(CC(=O)O)CC(=O)O)CC(=O)O` [EDETIC ACID] belongs 18 µM.
For `CC(=O)N[C@@H](CSC(CCCCCCCCCCCCCC(=O)O)C(=O)N[C@@H](C(=O)O)[C@@H](C)O)C(=O)O` (stereo partly specified), the outcome in the data set on Enterococcus mundtii, with Staphylococcus carnosus, in the data set on Erwinia persicina, with Micrococcus luteus, with Staphylococcus aureus and in the data set on Bacillus subtilis was inactive. Also, the result (with Kocuria rhizophila; in the data set on Escherichia coli; in data set [3]; in the data set with Pseudomonas putida) was inactive. For the same compound, the Activity entry in the data set with HepG2 was “Non-Toxic”.
